Assay results published in patent US11266755B2, “Development and application of tumor diagnostic radioactive probe targeting folic acid receptor” (Kyungpook National University Industry-Academic Cooperation …, priority 2017, dated 2022).

Tested on: MDA-MB-231/Luc+
Assay: PET imaging in breast cancer bone metastasis model
Format: in vivo
Conditions: PET 1 hour after injection into the tail vein, same mouse, FIG. 13B
Experimental: For the breast cancer metastasis model, MDA-MB-231/Luc+ was used, and after 10 days of direct injection of 1×10^5 cells into the left ventricle, IVIS-assisted luminescence images confirmed that bone metastasis occurred to the femoral bones. After verifying the establishment of bone metastasis model of breast cancer, further experiments were carried out (FIG. 12A).

Question: Which “PET detection of breast cancer bone metastasis” value does the source give for `OC[C@H]1O[C@@H](O)[C@H]([18F])[C@@H](O)[C@@H]1O` [FDG] here?
Answer: The value was “difficult to identify the tumor site clearly due to high background uptake”.
